Target: T1, Recombinant human liver GK (Homo sapiens, UniProt P35557)
T1 construct: made in house; host or cells: E. coli
T1 sequence (P35557 1-466 isoform P35557-2): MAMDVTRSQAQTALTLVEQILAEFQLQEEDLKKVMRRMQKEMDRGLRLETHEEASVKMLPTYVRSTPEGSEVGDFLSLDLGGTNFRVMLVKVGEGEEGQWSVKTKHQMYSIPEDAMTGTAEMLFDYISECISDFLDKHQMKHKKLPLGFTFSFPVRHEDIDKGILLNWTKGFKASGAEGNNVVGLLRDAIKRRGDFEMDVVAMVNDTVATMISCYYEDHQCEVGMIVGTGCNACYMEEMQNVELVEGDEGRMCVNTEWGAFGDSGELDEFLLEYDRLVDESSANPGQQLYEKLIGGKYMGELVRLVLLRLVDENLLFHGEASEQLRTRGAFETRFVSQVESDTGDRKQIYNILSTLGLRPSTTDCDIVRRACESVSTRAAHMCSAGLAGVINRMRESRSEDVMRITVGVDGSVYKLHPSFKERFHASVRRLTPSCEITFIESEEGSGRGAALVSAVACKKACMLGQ
Assay: Glucokinase activating action (G6PDH-coupled thio-NADH absorbance assay)
Type: biochemical
Details: GK activating ability, final glucose concentration 2.5 mM, 30° C.; for Emax: OD of DMSO control defined as 100%
Experimental: Glucokinase activating ability was measured using the compound of the present invention.
Measurement of an excellent glucokinase activating action of the compounds represented by the aforementioned formula (I) is able to be carried out by a method mentioned in literatures such as Diabetes, vol. 45, pages 1671 to 1677 (1996) or a method similar thereto.
Recombinant human liver GK used in this assay was expressed in E. coli as FLAG fusion protein and purified by ANTIFLAG M2 AFFINITY GEL (Sigma).
The assay was conducted at 30° C. using a flat-bottom 96-well plate. An assay buffer (25 mM Hepes Buffer: pH=7.2; 2 mM MgCl2, 1 mM ATP, 0.5 mM TNAD and 1 mM dithiothreitol) (69 μl) was dispensed and 1 μl of a solution of a compound in DMSO or DMSO (as a control) was added. After that, 20 μl of an enzyme mixture (FLAG-GK, 20 U/ml G6PDH) cooled in ice was added, then 10 μl of 25 mM glucose which is a substrate was added and the reaction was started (final glucose concentration=2.5 mM).
After starting the reaction, an increase in absorbance at 405 nm was measured for 10 minutes every 30 seconds and the compound was evaluated using the increase during the first 5 minutes. FLAG-GK was added in such a manner that an increase in absorbance after 5 minutes in the presence of 1% of DMSO became between 0.05 and 0.1.
OD value in the case of DMSO control was defined as 100% and OD values in various concentrations of the compound to be evaluated were measured. From the OD values in various concentrations, Emax (%) and EC50 (μM) were calculated and used as indexes of GK activating ability of the compound.

SMILES | Emax [%] | EC50 [µM]
c1cnc2sc(Nc3ncnc4ccc(Sc5nnc[nH]5)cc34)nc2c1 [Example 1, [6-(4H-[1,2,4]Triazol-3-ylsulfanyl)-quinazolin-4-yl]-thiazolo[5,4-b]pyridin-2-yl-amine] | 1000 | 0.18
FCC(CF)Oc1ccc2ncnc(Nc3nc4cccnc4s3)c2c1 [Example 22, [6-(2-Fluoro-1-fluoromethyl-ethoxy)-quinazolin-4-yl]-thiazolo[5,4-b]pyridin-2-yl-amine] | 860 | 0.08
c1cnc2sc(Nc3ncnc4ccc(Sc5nnc[nH]5)nc34)nc2c1 [Example 31] |  | 0.09
